{
  "source": "paper PMC6894747",
  "about": "(PLoS Pathogens, 2019)",
  "system": "HIV-1 JR-CSF",
  "experiment": "Therapeutic efficacy in humanized mice with established HIV-1 infection",
  "format": "in vivo, humanized NRG mice",
  "conditions": "n = 4",
  "protocol": "Humanized mice were inoculated with HIV-1 JR-CSF (10 ng p24/mouse) through retro-orbital injection and randomly assigned to 2 groups (4 mice in each group).\nHIV-1 genomic RNA was purified from plasma by using the QIAamp Viral RNA Mini Kit. The RNA was reverse-transcribed and quantitatively detected by real-time PCR with the TaqMan Fast Virus 1-Step PCR kit (Thermo Fisher Scientific). We used the forward primer 5’-[…]-3’ and the reverse primer 5’-[…]-3’ to detect the HIV gag gene. […] The limit of detection of each real-time PCR was 4 copies per reaction. Accordingly, owing to the relatively small volume of plasma in mice (about 50–100 μL total blood), the limit of detection was 400 copies/mL plasma. The copy numbers below the detectable limit were set as 1. Triplicate reactions were performed for each sample.",
  "note": "Positions of bridges follow the written chain, without caps; N, C: chain ends. Residues, ends and D or L forms follow the SMILES beside them.",
  "data": [
    {"smiles": "CC[C@H](C)[C@H](NC(=O)[C@H](CC(C)C)NC(=O)[C@H](CCC(=O)O)NC(=O)[C@H](CCC(=O)O)NC(=O)[C@@H](NC(=O)[C@H](CCCCN)NC(=O)[C@H](CCCCN)NC(=O)[C@@H](NC(=O)[C@H](Cc1ccc(O)cc1)NC(=O)[C@H](CCC(=O)O)NC(=O)[C@H](CCC(=O)O)NC(=O)[C@@H](NC(=O)[C@H](CCCCN)NC(=O)[C@H](CCCCN)NC(=O)[C@H](CC(=O)O)NC(=O)[C@H](Cc1c[nH]c2ccccc12)NC(=O)[C@H](CCC(=O)O)NC(=O)[C@H](CCC(=O)O)NC(=O)[C@H](Cc1c[nH]c2ccccc12)NC(=O)[C@@H](NC(=O)[C@H](CCSC)NC(=O)[C@@H](NC(=O)[C@@H]1CSSC[C@H](NC(=O)[C@@H](N)CC(=O)O)C(=O)N[C@@H](C)C(=O)N[C@@H](Cc2c[nH]c3ccccc23)C(=O)N[C@@H](Cc2c[nH]cn2)C(=O)N[C@@H](CC(C)C)C(=O)NCC(=O)N[C@@H](CCC(=O)O)C(=O)N[C@@H](CC(C)C)C(=O)N[C@@H](C(C)C)C(=O)N[C@@H](Cc2c[nH]c3ccccc23)C(=O)N1)[C@@H](C)O)[C@@H](C)O)[C@@H](C)CC)[C@@H](C)O)[C@@H](C)CC)C(=O)N[C@@H](CCCCN)C(=O)N[C@@H](CCCCN)C(=O)N[C@@H](CO)C(=O)O", "note": "[IBP-CP24] (H-DCAWHLGELVWCTMTWEEWDKKIEEYTKKIEELIKKS-OH; disulfide 2-12; N-terminus and C-terminus assumed)", "values": [
      {"measurement": "mean Δlog10 plasma HIV-1 RNA", "setting": "20 mg/kg i.p. once daily for 14 days, coinjected with human IgG 40 mg/kg twice weekly", "value": 0.13, "unit": "log10"},
      {"measurement": "average decrease of plasma HIV-1 RNA", "setting": "day 35 post-treatment, after twice daily 20 mg/kg for 21 days plus human IgG", "value": 1.42, "unit": "log10"}
    ]}
  ]
}
